Consider four molecules from publication PMC12409883 (Journal of Medicinal Chemistry, 2025).

One data set addresses RPE65 (Bos taurus, UniProt Q28175). Nature of the data set: In vitro RPE65 activity assay. The following applies: for IC50: IC50 toward RPE65, bovine RPE microsomes.
The test system of data set [1] is visual chromophore regeneration in BALB/cJ mice. Nature of the data set: Extent and duration of effects on visual chromophore recovery after photobleach. The following applies: 10 mg/kg single IP, photobleach 30 min after dose, 2 h dark recovery.
The nature of data set [2]: Shelf life of ester-based VCMs. The following applies: Figure S1. In kind it is physicochemical.
The subject of a further data set is porcine liver esterase. Description: In vitro esterase susceptibility assay. The following applies: for initial rate of VCM loss: 37 °C, followed for 60 min.
For data set [3], the system named is BALB/cJ mice. Description: Light-induced retinal damage in BALB/cJ mice: SLO and OCT imaging. It is filed as in vivo, mouse.
The next data set relates to BALBc/J mice. Nature of the data set: In vivo scotopic ERG 2 h after photobleach, oral gavage dosing. Details: species or system mouse. The following applies: 10 mg/kg oral gavage, photobleach after 30 min, 2 h in the dark.
The test system of data set [4] is BALB/cJ mice. Description: Light-induced retinal damage in BALB/cJ mice: histology, ONL nuclei counts. The following applies: 10 mg/kg single IP, 15,000 lx for 8 h, p < 0.0001.
In data set [5] the test system is Abca4–/–Rdh8–/– mice. Description: Photic retinal damage in Abca4–/–Rdh8–/– mice: photopic ERG. In kind it is in vivo, mouse. The following applies: IP and oral administration, 1 week after light damage.
Data set [6] deals with Abca4–/–Rdh8–/– mice. Nature of the data set: Photic retinal damage in Abca4–/–Rdh8–/– mice. In kind it is in vivo, mouse.
Data set [7] relates to Abca4–/–Rdh8–/– mice. Nature of the data set: Photic retinal damage in Abca4–/–Rdh8–/– mice: scotopic. In kind it is in vivo, mouse. The following applies: 1 week after light damage.
[8] abbreviates: 10 mg/kg single IP, 15,000 lx for 8 h, assessed after 7 days.

The structures appear in SMILES notation.

RPE65, sequence (Q28175 whole entry): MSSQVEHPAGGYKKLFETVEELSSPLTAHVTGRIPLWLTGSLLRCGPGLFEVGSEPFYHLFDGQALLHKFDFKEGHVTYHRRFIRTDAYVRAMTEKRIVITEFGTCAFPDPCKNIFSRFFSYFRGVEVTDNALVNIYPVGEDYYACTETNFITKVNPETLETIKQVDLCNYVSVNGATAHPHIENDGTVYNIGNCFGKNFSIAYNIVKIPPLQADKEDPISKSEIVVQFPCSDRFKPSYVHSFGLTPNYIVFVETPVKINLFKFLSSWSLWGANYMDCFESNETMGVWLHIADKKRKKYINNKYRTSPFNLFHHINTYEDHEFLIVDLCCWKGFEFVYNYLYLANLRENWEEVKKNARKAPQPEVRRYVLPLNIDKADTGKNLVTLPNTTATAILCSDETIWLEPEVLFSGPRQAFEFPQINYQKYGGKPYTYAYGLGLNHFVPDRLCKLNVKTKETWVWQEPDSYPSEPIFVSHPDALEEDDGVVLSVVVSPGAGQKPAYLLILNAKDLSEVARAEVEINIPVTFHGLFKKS

For the molecule `NCCC(O)c1cccc(O)c1` (stereo not shown) [Compound 4, 3-(3-Amino-1-hydroxypropyl)phenol], the “RPE65 inhibition in vitro” value on RPE65 (bovine RPE microsomes) is “did not significantly inhibit RPE65”. Moreover, the “ocular retinoid pattern (atREs and 11cRAL) after photobleach” value (shortened to “ocular retinoid pattern”) in [1] was “led to the same pattern as vehicle treatment”.
As for `NCCC(O)c1cccc(OC(=O)C2CCCCC2)c1.O=CO` (stereo not shown) [Compound 5, 3-(3-Amino-1-hydroxypropyl)phenyl cyclohexanecarboxylate formate], the “stability to nonenzymatic aminolysis” value in [2] is “substantially less stable compared to 6 and 7”. Moreover, the “initial rate of VCM loss” value in the data set on porcine liver esterase was 5.611 % compound/min. This molecule also returned an IC50 on RPE65 of 164 ± 27 nM. Further, the “ocular retinoid pattern” value in [1] is recorded as “led to the same pattern as vehicle treatment”.
Consider `CCC(CC)C(=O)Oc1cccc(C(O)CCN)c1.O=CO` (stereo not shown) [Compound 6, 3-(3-Amino-1-hydroxypropyl)phenyl 2-ethylbutanoate formate], for which, in the data set with BALB/cJ mice [3] (setting [8]), the “OCT: ONL thickness” value is “preserved the thickness of the ONL” and the “SLO retinal autofluorescent puncta” value was “rare autofluorescent puncta”. The “efficacy of a single systemic administration in the prevention of photic retinal damage” value in the data set with BALB/cJ mice [3] (10 mg/kg single IP, albino BALB/cJ mice) is reported as “equal to that of emixustat”. Also, in the data set with porcine liver esterase, the “slower initial rate of hydrolysis compared with compound 5” value was roughly 4 fold and the “initial rate of VCM loss” value was determined as 1.512 % compound/min. For the same molecule, the IC50 on RPE65 was found to be 69 ± 15 nM. Moreover, in data set [1], the “ocular retinoid pattern” value is reported as “reproduced the retinoid pattern observed after emixustat treatment”. For the same molecule, in the data set on BALBc/J mice, the “scotopic ERG a-wave after oral dosing” value is recorded as “suppressed significantly the scotopic ERG a-wave” and the “scotopic ERG b-wave after oral dosing” value is “only 7 suppressed also the b-wave amplitude”. The “Spider plot of ONL thickness from H&E sections, ANOVA” value in the data set on BALB/cJ mice [4] is listed as “significant effect”.
For `CCCC(CCC)C(=O)Oc1cccc(C(O)CCN)c1.O=CO` (stereo not shown) [Compound 7, 3-(3-Amino-1-hydroxypropyl)phenyl 2-propylpentanoate formate], the “S-cone and M-cone b-wave amplitudes” value with Abca4–/–Rdh8–/– mice [5] was “A similar trend was observed”. Besides, in the data set on porcine liver esterase, the “slower initial rate of hydrolysis compared with compound 5” value is given as roughly 13 fold and the “initial rate of VCM loss” value was 0.440 % compound/min. Moreover, the midpoint of inhibition against RPE65, the IC50, lay at 102 ± 12 nM. Moreover, the “ocular retinoid pattern” value in data set [1] is on record as “reproduced the retinoid pattern observed after emixustat treatment”. Further, in the data set on BALBc/J mice, the “scotopic ERG a-wave after oral dosing” value is on record as “suppressed significantly the scotopic ERG a-wave”. Further, the “OCT: ONL, oral” value in the data set on Abca4–/–Rdh8–/– mice [6] (oral 10, 20, 50 mg/kg, 10,000 lx for 30 min, assessed after 1 week) is “dose-dependent preservation of the ONL layer”. Moreover, the “SLO autofluorescent signals, oral” value in the data set with Abca4–/–Rdh8–/– mice [6] (oral 10, 20 and 50 mg/kg, 10,000 lx for 30 min, assessed after 1 week) is given as “did not afford complete protection”. For the same molecule, the “oral dose from which the effect on ONL thickness was significant” value in the data set on Abca4–/–Rdh8–/– mice [6] (oral administration, OCT ONL thickness) is no less than 20 mg/kg. Besides, the “OCT: ONL, IP” value in the data set on Abca4–/–Rdh8–/– mice [6] (single IP dose, 10,000 lx for 30 min, assessed after 1 week) is listed as “the ONL remained intact”. For the same molecule, in the data set with Abca4–/–Rdh8–/– mice [7] (IP administration), the “rod ERG responses, IP” value is listed as “had a significant effect in maintaining rod function”. In the data set with Abca4–/–Rdh8–/– mice [7] (oral 10, 20, 50 mg/kg), the “rod ERG b-wave amplitudes, oral” value is “dose-dependent preservation of rod ERG b-wave amplitudes”.
